“Also recorded” adds a separate entry of the source. Where no end group is shown, it is not given here.
Columns and labels:
TLR4 = TLR4 expression in JAWS II dendritic cells by immunocytochemistry / confocal microscopy; format: cell-based, mouse
Protocol: TLR4 expression by immunocytochemistry: The JAWS II-DCs were seeded at a density of 25,000 cells per well of an 8-well chamber slide (Nalge Nunc international, New York, USA). Post-LPS (100 ng/ml) treatment with SPA4 peptide (1 and 10 μM; SEQ ID NO:3) followed, and the cells were fixed for 20 minutes with 3.5% paraformaldehyde prepared in PBS on ice. Permeablization was carried out for 20 minutes on ice with Alpha-MEM medium containing 10% FBS and 0.05% saponin and 10 mM HEPES (Inaba et al., 1998). The cells were washed with PBS supplemented with 1% FBS and 0.05% saponin (wash buffer). Non-specific binding sites were blocked using PBS containing 10% normal mouse serum (Sigma, St Louis, Mo.) for 1 hour at room temperature in a humidified chamber. A rabbit polyclonal antibody to mouse TLR4 (Abcam, Cambridge, Mass.) was added to the cells at a dilution of 1:50 and incubated overnight at 4° C. in a humidified chamber. […]
SPA4 peptide (SEQ ID NO:3) inhibits the LPS-induced TLR4 expression in dendritic cells and SW480 intestinal (colonic) epithelial cells. […] First, it was determined if the SPA4 peptide inhibits LPS-induced expression of TLR4 in these cells. […]

[1] = tested on: NF-κB pathway molecules (IKBα, phosphorylated IKBα, p65, phosphorylated p65, RelB, COX-2); test: Expression of NF-κB pathway molecules in SW480 cell lysates by immunoblotting; format: cell-based, human
Protocol: Expression of NF-κB pathway molecules by immunoblotting: The expression of NF-κB pathway molecules (inhibitor kappa-Bα: IKBα, phosphorylated IKBα, p65, phosphorylated p65, RelB and COX-2) in SW480 cell-lysates treated with LPS±SPA4 peptide was studied by immunoblotting. For the immunoblotting, 10 μg of total cell-lysate proteins were fractionated on Novex 4-20% Tris-glycine gradient SDS-PAGE gel (Invitrogen, Carlsbad, Calif.) by electrophoresis. Separated proteins were electro-transferred onto a nitrocellulose membrane using iBlot gel transfer device (Invitrogen, Carlsbad, Calif.). The non-specific sites were blocked by incubating the membrane with 7% skimmed milk in Tris-buffered saline with 0.4% TWEEN®-20 (TBST) for 1 hour at room temperature. The blocked membranes were incubated overnight at 4° C. with 1:1000 diluted anti-human antibodies against NF-κB canonical pathway molecules: phosphorylated inhibitor kappa-Bα (IKBα), total-IKBα, p65, RelB (Cell Signaling Technology, Inc., Danvers, Mass.), phosphorylated p65 (Santacruz Biotech, Inc., Santa Cruz, Calif.) and cyclooxygenase-2 (COX-2; Santacruz Biotech, Inc., Santa Cruz, Calif.). The membranes were washed with TBST and incubated at room temperature for 45 minutes with 1:3500 diluted horse-radish peroxidase (HRP)-conjugated-secondary antibody (Sigma-Aldrich, St. Louis, Mo.). The immunoreactive bands were detected by Super Signal West Femto detection reagent (Thermo Fisher Scientific, Barrington, Ill.). In order to ensure equal protein loading in the wells, the membranes were stripped of probing antibodies at 60° C. for 45 minutes using a stripping solution containing 10% SDS, 0.5 M Tris and […] (35 μl/ml), and re-probed with anti-actin antibody (Sigma-Aldrich, MO; 1:1000 in TBST). The immunoblots were imaged using the Ultraquant image acquisition program (UltraLum Inc., Claremont, Calif.). The densitometric readings were obtained for immunoreactive bands with Image J 1.42 q program (NIH, USA). Finally, arbitrary densitometric values for proteins of interest were normalized with those of β-actin.

JAWS II dendritic cells = test: LPS-induced TNF-α release by JAWS II dendritic cells (ELISA); format: cell-based, mouse; conditions: for LPS-induced TNF-α, mean values: post-LPS model
Protocol: JAWS II dendritic cell culture: The JAWS II dendritic cell line is an immortalized cell line derived from bone marrow of C57BL/6 mice (ATCC, Manassas, Va.). The cells were maintained in Alpha-modified minimum essential medium (Sigma, St Louis, Mo.) supplemented with 20% fetal bovine serum (FBS), 4 mM L-glutamine, 100 U/ml penicillin, 100 μg/ml streptomycin, 50 μg/ml gentamicin (Invitrogen, Grand Island, N.Y.) and 5 ng/ml of recombinant murine granulocyte macrophage-colony stimulating factor (Peprotech, Rocky Hill, N.J.). (Awasthi et al., 2005). The culture medium was replaced with fresh medium every 48 h.
The JAWS II dendritic cells (1 million) were treated with SP-A peptides (1 or 10 μM) with or without E. coli derived LPS (75 ng/ml, highly purified, low protein, Calbiochem, CA). In order to observe the anti-inflammatory properties of the SP-A peptides, the cells were treated with peptides for 1 hour prior to addition of LPS (pre-LPS treatment) or after 4 hours incubation with LPS (Post-LPS treatment). The incubation was continued for a total period of 5 hours. Control cells were treated with vehicle, LPS (75 ng/ml), and/or SP-A peptides (1 and 10 μM) for a period of 5 hours. The cell-free supernatants were collected and stored at −80° C. for further analysis.
Cytokine (TNF-α) measurement: The TNF-α levels were measured in cell-free supernatants of JAWS II dendritic cells treated with LPS with or without SP-A peptides by enzyme linked immunosorbent assay (ELISA) as described earlier (Awasthi and Cox, 2003).

GDFRYSDGTPVNYTNWYRGE [SPA4, GDFRYSDGT PVNYTNWYRGE]
basal TLR4 expression (TLR4): reduced the basal TLR4 expression
LPS-induced TLR4 expression (TLR4; post-LPS treatment, p<0.05): suppressed significantly; also recorded: reduced LPS-induced TLR4 expression to a basal level
expression of RelB ([1]; LPS-challenged): No effect
expression of phosphorylated IKBα ([1]; LPS-challenged): No effect
expression of COX-2, short-term treatment ([1]; LPS-challenged, 5 hours model): decrease
expression of phosphorylated p65, short-term treatment ([1]; LPS-challenged, 5 hours model): decrease
expression of total IKBα, short-term treatment ([1]; LPS-challenged, 5 hours model): increase
expression of COX-2, long-term treatment ([1]; LPS-challenged, 9 hours model): remained low
expression of phosphorylated p65, long-term treatment ([1]; LPS-challenged, 9 hours model): remained low
expression of total IKBα, long-term treatment ([1]; LPS-challenged, 9 hours model): decreased
expression of NF-κB signaling molecules, SPA4 peptide alone ([1]; no LPS): did not affect the expression of any of the NF-κB signaling molecules studied, except for COX-2
secretion of TNF-α, post-LPS model (JAWS II dendritic cells; peptide added after 4 hours LPS 75 ng/ml, both 1 and 10 μM): inhibited the secretion of TNF-α
LPS-induced TNF-α, mean values (JAWS II dendritic cells; 1 μM peptide): 6448 pg/mL
LPS-induced TNF-α, mean values (JAWS II dendritic cells; 10 μM peptide): 6101 pg/mL

Reference: patent US8623832B2, “Peptide compositions that bind TLR-4” (The Board of Regents of the University of Oklahoma, priority 2011, dated 2014)
